A short description of assay [1]: inhibitors of intracellular T. cruzi replication, confirmation, NIH3T3 host cells, beta-gal luminescence (AID 2044).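 Further: intracellular parasites grown in NIH/3T3 mouse fibroblasts as host cells; luminescent beta-galactosidase reporter signal from transgenic T. cruzi replicating inside host cells; inhibitors lower the luminescence signal.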 Format: functional, cell-based.
Assay [2] in a line: cells.
Assay [3] is described as follows: cytotoxicity toward NIH3T3 fibroblasts, dose response, counter-screen, cell-based, ATP luminescence, mouse fibroblasts (AID 2010).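 Further: cells exposed to compound for about 90 hours before reading.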 The class given is functional.
In assay [4] the target is Prothrombin (Homo sapiens, UniProt P00734). The assay is described as follows: Thrombin 1536 HTS Dose Response Confirmation. [Related pubchem assays: 1046 (Thrombin 1536 HTS; hits were confirmed in this assay)]. Format: functional.
For assay [5], the target named is T1, Neuropeptide Y receptor type 2 (Homo sapiens, UniProt P49146).
T1 sequence (P49146 whole entry): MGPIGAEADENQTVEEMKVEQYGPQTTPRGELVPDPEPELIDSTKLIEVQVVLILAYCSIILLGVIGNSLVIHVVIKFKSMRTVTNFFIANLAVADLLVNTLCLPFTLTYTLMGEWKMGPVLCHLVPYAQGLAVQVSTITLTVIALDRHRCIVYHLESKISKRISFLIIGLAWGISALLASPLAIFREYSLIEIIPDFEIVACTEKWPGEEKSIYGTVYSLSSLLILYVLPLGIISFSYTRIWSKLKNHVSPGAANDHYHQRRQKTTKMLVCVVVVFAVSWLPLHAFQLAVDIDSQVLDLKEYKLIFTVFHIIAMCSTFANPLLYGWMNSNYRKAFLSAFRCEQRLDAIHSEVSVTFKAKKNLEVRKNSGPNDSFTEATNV
The assay is described as follows: Fluorescence-based counterscreen for agonists of NPY-Y1: cell-based high-throughput dose response assay for agonists of NPY-Y2. Format: functional.

Assay [6] has as its target Disintegrin and metalloproteinase domain-containing protein 17 (Homo sapiens, UniProt P78536). Kind of assay: exosite inhibitors of ADAM17, dose response, biochemical (AID 743260).
Assay [7] concerns HEK293. Kind of assay: Fluorescence-based counterscreen for potentiators or agonists of NPY-Y1: cell-based high-throughput dose response assay for inhibitors of cyclic nucleotide gated ion channel (CNGC) activity. In this assay, the parental HEK293 cell line transfected with a cyclic-nucleotide gated ion channel (CNGC)-based cAMP sensor is used to measure inhibition of isoproterenol-induced CNGC …. Format: functional. The note with it: Homo sapiens. A general note: A counterscreen serves to expose hits that act by an unwanted route or on another target.

The target in assay [8] is T2, Mannose-6-phosphate isomerase (Homo sapiens, UniProt P34949).
T2 sequence (P34949 whole entry): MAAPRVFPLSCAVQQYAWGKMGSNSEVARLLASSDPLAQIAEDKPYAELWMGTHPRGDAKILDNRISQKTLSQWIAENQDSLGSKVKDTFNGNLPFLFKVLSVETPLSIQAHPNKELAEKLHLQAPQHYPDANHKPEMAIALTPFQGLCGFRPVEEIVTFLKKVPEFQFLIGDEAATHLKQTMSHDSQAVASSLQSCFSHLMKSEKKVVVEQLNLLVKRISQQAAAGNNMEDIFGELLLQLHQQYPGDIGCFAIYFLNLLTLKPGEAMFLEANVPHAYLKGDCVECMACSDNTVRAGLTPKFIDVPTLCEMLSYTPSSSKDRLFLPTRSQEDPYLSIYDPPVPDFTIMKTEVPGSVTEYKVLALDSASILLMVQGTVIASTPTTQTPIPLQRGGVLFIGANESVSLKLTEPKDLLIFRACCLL
The assay is described as follows: human PMI inhibitors, high substrate, primary screen, biochemical, fluorescence intensity, high mannose 6-phosphate (AID 1220).

For assay [9], the target named is T3, Neuropeptide Y receptor type 1 (Homo sapiens, UniProt P25929).
T3 sequence (P25929 whole entry): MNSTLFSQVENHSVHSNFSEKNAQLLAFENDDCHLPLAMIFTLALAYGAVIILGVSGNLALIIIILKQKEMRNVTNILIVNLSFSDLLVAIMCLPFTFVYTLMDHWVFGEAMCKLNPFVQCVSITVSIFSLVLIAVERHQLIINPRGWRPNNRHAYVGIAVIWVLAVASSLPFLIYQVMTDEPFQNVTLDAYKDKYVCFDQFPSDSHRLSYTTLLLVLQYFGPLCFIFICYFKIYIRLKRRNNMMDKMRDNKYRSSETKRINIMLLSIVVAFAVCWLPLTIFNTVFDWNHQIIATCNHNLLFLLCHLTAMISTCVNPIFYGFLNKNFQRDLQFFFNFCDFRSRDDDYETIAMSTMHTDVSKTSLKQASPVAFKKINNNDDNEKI
Kind of assay: Fluorescence-based dose response cell-based high-throughput screening assay for potentiators or agonists of NPY-Y1. The class given is functional.

Assay [10] addresses T3, Neuropeptide Y receptor type 1. Kind of assay: Fluorescence-based dose response cell-based high-throughput screening assay for agonists of NPY-Y1. [Related pubchem assays: 1697 (Screening assay (NPY-Y1 agonists).), 1359 (Screening assay (NPY-Y2 potentiators or agonists).), 1304 (Screening assay (NPY-Y1 potentiators or agonists).), 1704 (Screening assay (CNGC inhibitors).), 1791 (Summary AID.)]. Format: functional.

For assay [11], the target named is Heat shock protein HSP 90-alpha (Homo sapiens, UniProt P07900). Format: functional, organism-based.
A short description of assay [12]: ADAM10 protease inhibitors, dose response, selectivity assay for ADAM17 exosite inhibitor project, biochemical, FRET peptide substrate, recombinant human ADAM10 (AID 743259).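 Further: ADAM10 enzyme cleaving a FRET peptide substrate.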
Assay [13] in a line: human group III sPLA2 inhibitors, dose response, biochemical, QFRET, IC50 (AID 743457).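 Further: green fluorescence rise as the enzyme cleaves BODIPY PC-A2 in liposomes; potency for inhibition of the enzyme.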
In assay [14] the target is T1, Neuropeptide Y receptor type 2. Kind of assay: Fluorescence counterscreen for potentiators or agonists of NPY-Y1: Cell-based high-throughput dose response assay for potentiators or agonists of NPY-Y2. The class given is functional.

Calls of active or inactive are those of the source.

Sequence of Disintegrin and metalloproteinase domain-containing protein 17 (P78536 whole entry, the tested form may be a part): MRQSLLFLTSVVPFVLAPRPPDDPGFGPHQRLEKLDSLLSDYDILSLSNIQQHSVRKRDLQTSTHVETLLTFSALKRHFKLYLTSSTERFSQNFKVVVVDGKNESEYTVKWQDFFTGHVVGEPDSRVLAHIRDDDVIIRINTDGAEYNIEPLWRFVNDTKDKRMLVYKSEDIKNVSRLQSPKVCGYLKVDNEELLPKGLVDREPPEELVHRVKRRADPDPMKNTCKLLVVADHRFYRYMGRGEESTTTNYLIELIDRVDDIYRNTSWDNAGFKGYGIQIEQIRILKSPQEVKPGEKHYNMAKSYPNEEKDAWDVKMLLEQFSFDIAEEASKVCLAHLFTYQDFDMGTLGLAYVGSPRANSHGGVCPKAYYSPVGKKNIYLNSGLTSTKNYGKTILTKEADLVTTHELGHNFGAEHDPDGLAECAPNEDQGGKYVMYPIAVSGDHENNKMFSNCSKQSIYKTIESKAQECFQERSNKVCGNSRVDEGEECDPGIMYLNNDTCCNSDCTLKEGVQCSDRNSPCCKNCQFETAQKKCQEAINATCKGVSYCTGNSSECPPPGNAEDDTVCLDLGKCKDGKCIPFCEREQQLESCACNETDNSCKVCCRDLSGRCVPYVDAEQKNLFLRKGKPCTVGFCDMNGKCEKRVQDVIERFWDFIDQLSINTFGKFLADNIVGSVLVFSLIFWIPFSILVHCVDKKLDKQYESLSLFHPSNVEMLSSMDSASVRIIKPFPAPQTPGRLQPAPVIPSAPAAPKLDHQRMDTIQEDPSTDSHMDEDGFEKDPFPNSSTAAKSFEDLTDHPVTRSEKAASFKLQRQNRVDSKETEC

In general, EC50 refers to the concentration that produces a half-maximal response. With `CC(C)Cc1ccc(CN2CCCC(NC(=O)CSc3nncn3C)C2)cc1` (centres undefined), the EC50 was < 0.1 µM (active) in [1], 0.071 µM (active) in [2] and > 60 µM (not active) in assay [3].

The IC50 is the point on the concentration scale where inhibition reaches its midpoint. With `COc1ccc(C(=O)n2c(SC)nc3cc4c(cc32)OCCO4)cc1`, the IC50 in assay [4] is 0.955 µM (active).

As a reminder, the AC50 is the concentration at which the activity in the assay is half-maximal. In the case of `CC(C)/N=c1\scc(-c2cccs2)n1/N=C/c1ccc(O)c(O)c1O`, the EC50 is 24.3 µM (not active) in assay [5], > 35.4 µM (not active) in assay [9], > 3.94 µM (active) in assay [10] and 22 µM (not active) in assay [14]. Further, the IC50 in assay [6] is 31.2 µM (inactive); in assay [7], > 35.4 µM (not active); in [8], > 50 µM (not active); in assay [12] it was 12.8 µM (inactive); in [13], 41.3 µM (inactive). In [11], the AC50 was 3.46 µM (active).

For the origin of these results see ChEMBL document CHEMBL1201862, “PubChem BioAssay data set” (2004).
